In general, EC50 refers to the midpoint of the concentration-response curve. Lower therefore signals an effect from little substance.

Structures can show the parent of a compound that is named as a salt.

Sequence of TLR2 (O60603 21-784): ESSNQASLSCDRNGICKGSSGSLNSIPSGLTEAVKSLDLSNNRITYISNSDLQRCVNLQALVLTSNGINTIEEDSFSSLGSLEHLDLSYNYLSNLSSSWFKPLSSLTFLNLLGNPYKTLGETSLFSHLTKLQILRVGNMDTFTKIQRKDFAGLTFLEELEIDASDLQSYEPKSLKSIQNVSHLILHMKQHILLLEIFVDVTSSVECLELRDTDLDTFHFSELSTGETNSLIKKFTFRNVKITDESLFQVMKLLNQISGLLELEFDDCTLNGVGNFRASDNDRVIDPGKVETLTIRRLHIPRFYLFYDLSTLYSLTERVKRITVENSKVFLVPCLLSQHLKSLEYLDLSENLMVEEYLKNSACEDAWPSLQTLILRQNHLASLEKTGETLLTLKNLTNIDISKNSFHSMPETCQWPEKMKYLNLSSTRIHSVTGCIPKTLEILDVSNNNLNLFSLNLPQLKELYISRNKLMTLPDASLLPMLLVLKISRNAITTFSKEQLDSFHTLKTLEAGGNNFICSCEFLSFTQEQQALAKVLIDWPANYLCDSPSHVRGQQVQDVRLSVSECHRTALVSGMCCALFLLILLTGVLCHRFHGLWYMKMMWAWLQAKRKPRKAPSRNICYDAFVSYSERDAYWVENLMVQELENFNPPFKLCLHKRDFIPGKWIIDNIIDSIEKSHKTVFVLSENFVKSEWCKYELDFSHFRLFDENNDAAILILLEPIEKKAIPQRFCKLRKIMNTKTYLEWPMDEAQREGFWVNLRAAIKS

One test concerns the target TLR2 (Homo sapiens, UniProt O60603). As to the kind of experiment: TLR2 agonist screening assay, HEK-Blue TLR2 reporter cell line (NF-kB-driven SEAP, absorbance at 600 nm). It counts as cell-based. More on the design: host or cells: HEK-293 (HEK-Blue TLR2 reporter cell line). The settings on record: HEK-Blue TLR2 reporter cells, agonist mode; average of all runs (Table 3). From the text:
TLRs are a class of cell-surface receptors expressed on many different cell types that recognize conserved structural motifs present on pathogen-derived molecules. TLR2 recognizes bacteria-derived lipopeptides. […] Provided herein is an assay to identify and characterize the binding affinities of novel TLR2 agonists.
The in vitro TLR2 assay consists of a cell line that responds to TLR2 engagement by producing a factor that elicits a color change in the culture media and can be readily measured by various colorimetric detection methods. This assay enables the identification of existing and novel compounds that engage TLR2 and, by virtue of compound dilution, to approximate the binding affinity of these compounds for eliciting a TLR2 signal.
The TLR2 screening assay was developed from the HEK-Blue TLR2 reporter cell line that is commercially available from Invivogen (San Diego, CA). The reporter cell line consists of HEK-293 embryonic kidney cells that have been engineered to express TLR2 and with an NF-kB promoter driving expression of Secreted Alkaline Phosphatase (SEAP). Upon engagement of TLR2, downstream signaling results in activation of NF-kB pathway activation and secretion of SEAR In the presence of the detection reagent in the tissue culture media, SEAP mediates a color change from clear to indigo that is readily assessed by measuring absorbance at 600 nm.
HEK-Blue TLR2 reporter cells are cultured according to manufacturer's specifications until a confluence of 70-90%, at which point the cells are trypsinized, counted, and plated into 96-well plates at approximately 40,000 cells per well. Cells are cultured overnight and the TLR2 assay is performed 16-24 hours post-plating into 96 well plates.
Compounds are diluted from stocks dissolved in DMSO and a 1% DMSO final concentration is maintained in all testing wells.
The assay consists of removing the cell culture media after cells have been cultured overnight and replacing the media with HEK-Blue Detection media with TLR2 agonists at indicated dilution schemes. The Detection media contains a chemical substrate that turns from clear to indigo when acted upon by SEAP. The HEK-Blue cells are then cultured overnight in Detection media with diluted compounds. After overnight culture with agonists, each well of the plate is assayed in a plate reader at 600 nanometer absorbance.
• (1) HEK-Blue TLR2 cells are diluted in complete DME culture medium and plated into 96-well plates at 40,000 cells per well and cultured overnight. • (2) After 16-24 hours in culture, the media is removed and replaced with 200 microliters per well of HEK-Blue Detection media. • (3) TLR2 agonists are diluted 100-fold from DMSO stocks into each well, yielding a final DMSO concentration of 1% in all wells. • (3) Treated cells are cultured overnight and the following day are assayed in plate reader for Absorbance at 600 nanometer.
Following assay measurements utilizing either HEK-Blue detection or cytokine release, all data is analyzed with the GraphPad Prism8 statistical package to determine EC50, binding and activity metrics for the TLR2 modulators.
Data is generated using protocol described in Example 44.
`CCCCCCNC(=O)C1CN(C(=O)c2ccc(C(=O)N3C[C@@H](C(=O)N[C@H]4C[C@@H]4c4ccccc4)[C@H](C(=O)N[C@H]4C[C@@H]4c4ccccc4)C3)cc2)CCN1` (stereo partly drawn) [Compound 042, (3S,4S)-1-(4-(3-(hexylcarbamoyl)piperazine-1-carbonyl)benzoyl)-N3,N4-bis((1S,2R)-2-phenylcyclopropyl)pyrrolidine-3,4-dicarboxamide formate] yielded an EC50 of 351 to 1000 nM.

Consider `CCCCCCCCCCNC(=O)C1CN(C(=O)c2ccc(C(=O)N3C[C@@H](C(=O)N[C@H]4C[C@@H]4c4ccccc4)[C@H](C(=O)N[C@H]4C[C@@H]4c4ccccc4)C3)cc2)CCN1C(=O)CCCCCCC` (stereo partly drawn) [Compound 066, (3S,4S)-1-(4-(3-(decylcarbamoyl)-4-octanoylpiperazine-1-carbonyl)benzoyl)-N3,N4-bis((1S,2R)-2-phenylcyclopropyl)pyrrolidine-3,4-dicarboxamide], for which the EC50 lay in the range of 51 to 350 nM. `CCCCCCCC(=O)N1CC(=O)N(Cc2ccc(C(=O)N3C[C@@H](C(=O)N[C@H]4C[C@@H]4c4ccccc4)[C@H](C(=O)N[C@H]4C[C@@H]4c4ccccc4)C3)cc2)C[C@@H]1C(=O)NCCCCCC` [Compound 074, (3S,4S)-1-(4-(((R)-5-(hexylcarbamoyl)-4-octanoyl-2-oxopiperazin-1-yl)methyl)benzoyl)-N3,N4-bis((1S,2R)-2-phenylcyclopropyl)pyrrolidine-3,4-dicarboxamide] returned an EC50 of 51 to 350 nM.

As to `CCCCCCCC(=O)N1CCN(C(=O)c2ccc(C(=O)N3C[C@@H](C(=O)N[C@H]4C[C@@H]4c4ccccc4)[C@H](C(=O)N[C@H]4C[C@@H]4c4ccccc4)C3)cc2)C[C@H]1C(=O)NCCCCCC` [Compound 030], the EC50 is > 1000 nM. On the same count and under the same terms, for `CCCCCCNC(=O)C1CN(C(=O)c2ccc(C(=O)N3C[C@@H](C(=O)N[C@H]4C[C@@H]4c4ccccc4)[C@H](C(=O)N[C@H]4C[C@@H]4c4ccccc4)C3)cc2)CCN1C(=O)CCCCCC` (mixture of isomers) [Compound 056, (3S,4S)-1-(4-(4-heptanoyl-3-(hexylcarbamoyl)piperazine-1-carbonyl)benzoyl)-N3,N4-bis((1S,2R)-2-phenylcyclopropyl)pyrrolidine-3,4-dicarboxamide] the value was 0.1 to 50 nM; for `CCCCCCNC(=O)[C@@H](CNC(=O)c1ccc(C(=O)N2C[C@@H](C(=O)N[C@H]3C[C@@H]3c3ccccc3)[C@H](C(=O)N[C@H]3C[C@@H]3c3ccccc3)C2)cc1)NC(=O)CCCCCC` [Compound 070, (3S,4S)-1-(4-(((R)-2-heptanamido-3-(hexylamino)-3-oxopropyl)carbamoyl)benzoyl)-N3,N4-bis((1S,2R)-2-phenylcyclopropyl)pyrrolidine-3,4-dicarboxamide], > 1000 nM. On the same count and under the same terms, next, `CCCCCCNC(=O)CC[C@H](NC(=O)c1ccc(C(=O)N2C[C@@H](C(=O)N[C@H]3C[C@@H]3c3ccccc3)[C@H](C(=O)N[C@H]3C[C@@H]3c3ccccc3)C2)cc1)C(=O)NCCCCCC` [Compound 013]: > 1000 nM.

The same test, now with this note: HEK-Blue TLR2 reporter cells, agonist mode; average of all runs (Table 4).
With `CCCCCCCC(=O)N1CCCN(S(=O)(=O)c2cccc(C(=O)N3C[C@@H](C(=O)N[C@H]4C[C@@H]4c4ccccc4)[C@H](C(=O)N[C@H]4C[C@@H]4c4ccccc4)C3)c2)C[C@H]1C(=O)NCCCCCC` (single isomer, unassigned) [Compound 200], the 50% effective concentration (EC50) is > 1000 nM. Still for that read-out and setting: for `CCCCCCCCCCCCCNC(=O)N[C@H]1CN(c2nnc(-c3ccc(C(=O)N4C[C@@H](C(=O)N[C@H]5C[C@@H]5c5ccccc5)[C@H](C(=O)N[C@H]5C[C@@H]5c5ccccc5)C4)cc3)[nH]2)C[C@@H]1OC` [Compound 237, (3S,4S)-1-(4-(5-((3S,4S)-3-methoxy-4-(3-tridecylureido)pyrrolidin-1-yl)-4H-1,2,4-triazol-3-yl)benzoyl)-N3,N4-bis((1S,2R)-2-phenylcyclopropyl)pyrrolidine-3,4-dicarboxamide] the value was > 1000 nM. Consider `CCCCCCCC(=O)N1CCN(S(=O)(=O)c2cccc(C(=O)N3C[C@@H](C(=O)N[C@H]4C[C@@H]4c4ccccc4)[C@H](C(=O)N[C@H]4C[C@@H]4c4ccccc4)C3)c2)C[C@H]1C(=O)NCCCCCC` [Compound 170, (3S,4S)-1-(3-(((S)-3-(hexylcarbamoyl)-4-octanoylpiperazin-1-yl)sulfonyl)benzoyl)-N3,N4-bis((1S,2R)-2-phenylcyclopropyl)pyrrolidine-3,4-dicarboxamide], for which the EC50 is > 1000 nM. `CCCCCCCC(=O)N1CCCN(C(=O)c2cccc(C(=O)N3C[C@@H](C(=O)N[C@H]4C[C@@H]4c4ccccc4)[C@H](C(=O)N[C@H]4C[C@@H]4c4ccccc4)C3)c2)C[C@H]1C(=O)NCCCCCC` (single isomer, unassigned) [Compound 190] returned an EC50 of 351 to 1000 nM. Turning to `CCCCCCCCCC(=O)N[C@@H](CNc1nc2cc(C(=O)N3C[C@@H](C(=O)N[C@H]4C[C@@H]4c4ccccc4)[C@H](C(=O)N[C@H]4C[C@@H]4c4ccccc4)C3)ccc2o1)C(=O)NCCCCCC` [Compound 246, (3S,4S)-1-(2-(((S)-2-decanamido-3-(hexylamino)-3-oxopropyl)amino)benzo[d]oxazole-5-carbonyl)-N3,N4-bis((1S,2R)-2-phenylcyclopropyl)pyrrolidine-3,4-dicarboxamide], the EC50 is > 1000 nM. `CCCCCCCCCCCCCCNC(=O)[C@H]1CN(Cc2ccc(C(=O)N3C[C@@H](C(=O)N[C@H]4C[C@@H]4c4ccccc4)[C@H](C(=O)N[C@H]4C[C@@H]4c4ccccc4)C3)cc2)C(=O)CN1C` [Compound 092, (3S,4S)-1-(4-(((R)-4-methyl-2-oxo-5-(tetradecylcarbamoyl)piperazin-1-yl)methyl)benzoyl)-N3,N4-bis((1S,2R)-2-phenylcyclopropyl)pyrrolidine-3,4-dicarboxamide] yielded an EC50 of 51 to 350 nM. For `CCCCCCCC[C@@H]1CN(C(=O)c2ccc(C(=O)N3C[C@@H](C(=O)N[C@H]4C[C@@H]4c4ccccc4)[C@H](C(=O)N[C@H]4C[C@@H]4c4ccccc4)C3)cc2)C[C@H]1C(=O)NCCCCCC` (single isomer, unassigned) [Compound 111], the EC50 fell in the range of 0.1 to 50 nM. Same read-out and setting: for `O=C(N[C@H]1C[C@@H]1c1ccccc1)[C@@H]1CN(C(=O)c2ccc(C(=O)N3C[C@@H](C(=O)N[C@H]4C[C@@H]4c4ccccc4)[C@H](C(=O)N[C@H]4C[C@@H]4c4cccnc4)C3)cc2)C[C@H]1C(=O)N[C@H]1C[C@@H]1c1ccccc1` (relative stereo) [Compound 096, (3S,4S)—N3-((1S)-2-phenylcyclopropyl)-N4-(2-phenylcyclopropyl)-1-(4-((3S,4S)-3-(((1S,2R)-2-phenylcyclopropyl)carbamoyl)-4-(((1S*,2R*)-2-(pyridin-3-yl)cyclopropyl)carbamoyl)pyrrolidine-1-carbonyl)benzoyl)pyrrolidine-3,4-dicarboxamide] the value was 0.1 to 50 nM; for `CO[C@H]1CN(C(=O)c2ccc(C(=O)N3C[C@@H](C(=O)N[C@H]4C[C@@H]4c4ccccc4)[C@H](C(=O)N[C@H]4C[C@@H]4c4ccccc4)C3)cc2)C[C@@H]1NC(=O)NCCc1ccc(F)cc1` [Compound 182, (3S,4S)-1-(4-((3S,4S)-3-(3-(4-fluorophenethyl)ureido)-4-methoxypyrrolidine-1-carbonyl)benzoyl)-N3,N4-bis((1S,2R)-2-phenylcyclopropyl)pyrrolidine-3,4-dicarboxamide], > 1000 nM.

Source of the values: patent US11951094B2, “TLR2 modulator compounds, pharmaceutical compositions and uses thereof” (Axial Therapeutics, Inc., priority 2020, dated 2024).
